Results taken from US20250177357A1, “METHODS FOR TREATING HYPERTROPHIC CARDIOMYOPATHY” (priority 2021, published 2025).

How the values were obtained:
Assay type in all cases: in vivo, human
[1] = Phase 1 plasma pharmacokinetics, single-ascending dose cohorts
Description: Single-ascending dose (SAD) cohorts. The SAD portion of the study used a randomized, double-blind, placebo-controlled, sequential, escalating-dose design, in which participants received single-ascending oral doses of the study drug. Seven cohorts were dosed in sequence (FIG. 2).
Pharmacokinetic analyses. For all study groups, blood samples for PK assessment were obtained pre-dose, up to 12 times daily on day 1, and then at regular intervals throughout the study. Blood samples were collected according to the following schedule: SAD Cohorts: Day 1: pre-dose and 0.25, 0.5, 1, 1.5, 2, 2.5, 3, 4, 6, 8, 12, 16, 24, 36, 48, 72, 96, and 216 h post dose. MAD Cohorts (14-day Dosing): Day 1: pre-dose and 0.25, 0.5, 1, 1.5, 2, 2.5, 3, 4, 6, 8, and 12 h post dose; Days 2, 4, 5, 6, and 9: pre-dose (corresponding to trough samples following dosing on days 1, 3, 4, 5, and 8) and 1.5 h post dose; Days 3, 7, 8, 10, 11, 12, and 13: pre-dose (corresponding to trough samples following dosing on days 2, 6, 7, 9, 10, 11, and 12); Day 14: pre-dose and 0.25, 0.5, 1.5, 2, 2.5, 3, 4, 6, 8, 12, 16, 24, 36, 48, 72, and 168 h post dose. MAD Cohort (17-Day Dosing): Day 1: pre-dose and 0.25, 0.5, 1, 1.5, 2, 2.5, 3, 4, 6, 8, and 12 h post dose; Days 2, 4, 5, 6, and 9: pre-dose (corresponding to trough samples following dosing on days 1, 3, 4, 5, and 8) and 1.5 h post dose; Days 3, 7, 8, 10, 11, 12, 13, 14, 15, and 16: pre-dose (corresponding to trough samples following dosing on days 2, 6, 7, 9, 10, 11, and 12); Day 17: pre-dose and 0.25, 0.5, 1.5, 2, 2.5, 3, 5, 7, 9, 12, 24, 36, 48, 72, and 168 h post dose. CYPD6-PM Cohort: Day 1: pre-dose and 0.25, 0.5, 1, 1.5, 2, 2.5, 3, 4, 6, 8, 12, 16, 24, 36, 48, 72, 96, 216, 312, and 552 h post dose. Food-Effect Cohort: Day 1: pre-dose and 0.25, 0.5, 1, 1.5, 2, 2.5, 3, 4, 6, 8, 12, 16, 24, 36, 48, 72, 96, 144, and 216 h post dose. Standard non-compartmental methods were used to calculate PK parameters using Phoenix® WinNonlin® Version 7.0; actual sample collection times were utilized.
For the MAD cohort, the parameters were AUC24 and Cmax on day 1, plus AUC to the […] (AUCtau) and Cmax on day 14 or 17. The statistical linear relationship between the ln-transformed PK parameters and the ln-transformed dose was verified by including the quadratic (ln Dose)^2 and cubic (ln Dose)^3 effects. […] The dose-proportionality analysis was performed using SAS® PROC MIXED.

[2] = Phase 1 plasma pharmacokinetics, CYP2D6 poor metabolizer cohort; conditions: CYP2D6 poor metabolizers, single 10 mg, n = 7
Description: CYP2D6 poor metabolizer cohort.
CYP2D6 genotypes were determined at screening for all study participants; those identified as CYP2D6-PMs were excluded from the SAD and MAD cohorts but were invited to participate in the CYP2D6-PM cohort. The first individual in the CYP2D6-PM cohort was dosed after the SAD 25-mg cohort (FIG. 2). […] Nine participants were randomized (7:2) with a sentinel dosing group consisting of the first 2 participants treated.
Pharmacokinetic analyses. For all study groups, blood samples for PK assessment were obtained pre-dose, up to 12 times daily on day 1, and then at regular intervals throughout the study. Blood samples were collected according to the following schedule: SAD Cohorts: Day 1: pre-dose and 0.25, 0.5, 1, 1.5, 2, 2.5, 3, 4, 6, 8, 12, 16, 24, 36, 48, 72, 96, and 216 h post dose. MAD Cohorts (14-day Dosing): Day 1: pre-dose and 0.25, 0.5, 1, 1.5, 2, 2.5, 3, 4, 6, 8, and 12 h post dose; Days 2, 4, 5, 6, and 9: pre-dose (corresponding to trough samples following dosing on days 1, 3, 4, 5, and 8) and 1.5 h post dose; Days 3, 7, 8, 10, 11, 12, and 13: pre-dose (corresponding to trough samples following dosing on days 2, 6, 7, 9, 10, 11, and 12); Day 14: pre-dose and 0.25, 0.5, 1.5, 2, 2.5, 3, 4, 6, 8, 12, 16, 24, 36, 48, 72, and 168 h post dose. […]

[3] = system: patients with symptomatic oHCM; assay: Open-label extension trial in oHCM: safety
Source text: An open-label extension clinical trial of CK-274 in patients with symptomatic oHCM was initiated.
Patients who completed the study as described in Example 2 and had not developed atrial fibrillation were eligible to enroll in the study. Echo-guided dose titration based on site reads was managed by the investigator and could occur at any time during the trial, as described below.
Each patient received Dose 1 of CK-274 once daily for 2 weeks. […] Patients were up-titrated to Dose 2 if either of the following conditions were met on echocardiography: (1) resting LVOT-G≥30 mmHg and the biplane LVEF≥50%; or (2) resting LVOT-G<30 mmHg, post-Valsalva LVOT-G≥50 mmHg, and the biplane LVEF≥50%. Otherwise, the patient remained on 5 mg of CK-274. If LVEF was […], treatment was discontinued. If LVEF was <40%, treatment is interrupted.
Ambulatory cardiac monitoring is performed on weeks 48, 96, 144, 192 and 240. Cardiac magnetic resonance is monitored at weeks 48, 144 and 240. (See FIG. 26).

## CCc1nc(-c2ccc3c(c2)CC[C@H]3NC(=O)c2cnn(C)c2)no1 [aficamten, (R)—N-(5-(5-ethyl-1,2,4-oxadiazol-3-yl)-2,3-dihydro-1H-inden-1-yl)-1-methyl-1H-pyrazole-4-carboxamide]
[1]; SAD cohorts
  Maximum time to maximum observed concentration across all participants: 4.0 h
[1]; single oral dose 3 mg, n = 5
  CL/F, mean ± SD: 4.2 ± 3.1 L/h
[1]; single oral dose 10 mg, n = 4
  CL/F, mean ± SD: 3.0 ± 0.7 L/h
[1]; single oral dose 25 mg, n = 6
  CL/F, mean ± SD: 3.6 ± 0.5 L/h
[1]; single oral dose 40 mg, n = 5
  CL/F, mean ± SD: 3.4 ± 0.6 L/h
[1]; single oral dose 50 mg, n = 9
  CL/F, mean ± SD: 3.8 ± 1.1 L/h
[2]
  CL/F, mean ± SD: 3.6 ± 1.4 L/h
[3]; N = 38
  Patients with TEAE Leading to Dose Reduction: 2 (5%)
  Patients with TEAE Leading to Drug Interruption: 1 (3%)
  Patients with at Least One Related TEAE: 8 (21%)
  Patients with at Least One Severe TEAE: 1 (3%)
  Patients with at Least One TEAE: 28 (74%)
  Patients with at Least One TESAE: 2 (5%)
[3]; on 15 mg of CK-274
  LVEF of one patient with recurrent alcohol induced atrial fibrillation: 47%
[3]; open-label extension
  Events of LVEF <50% attributed to CK-274: no events
